From ChEMBL document CHEMBL1148271, “3-(2-pyrrolidin-1-ylethyl)-5-(1,2,3,6-tetrahydropyridin-4-yl)-1H-indole derivatives as high affinity human 5-HT(1B/1D) ligands” (Bioorg Med Chem Lett, 2004) come the findings set out here.

The target in assay [1] is 5-hydroxytryptamine receptor 1D (Homo sapiens, UniProt P28221). Nature of the assay: Binding affinity was evaluated at the cloned human 5-hydroxytryptamine 1D receptor.
For assay [2], the target named is Serotonin 1 receptors; 5-HT1B & 5-HT1D (Homo sapiens) (UniProt P28222+P28221). The experiment in a line: Binding affinity ratio was evaluated (5-HT1B / 5-HT1D receptor). Format: protein assay.
Assay [3] concerns the target 5-hydroxytryptamine receptor 1B (Homo sapiens, UniProt P28222). Nature of the assay: Binding affinity was evaluated at the cloned human 5-hydroxytryptamine 1B receptor.

Each structure is given as a SMILES string.

Chain of 5-hydroxytryptamine receptor 1B (P28222 whole entry): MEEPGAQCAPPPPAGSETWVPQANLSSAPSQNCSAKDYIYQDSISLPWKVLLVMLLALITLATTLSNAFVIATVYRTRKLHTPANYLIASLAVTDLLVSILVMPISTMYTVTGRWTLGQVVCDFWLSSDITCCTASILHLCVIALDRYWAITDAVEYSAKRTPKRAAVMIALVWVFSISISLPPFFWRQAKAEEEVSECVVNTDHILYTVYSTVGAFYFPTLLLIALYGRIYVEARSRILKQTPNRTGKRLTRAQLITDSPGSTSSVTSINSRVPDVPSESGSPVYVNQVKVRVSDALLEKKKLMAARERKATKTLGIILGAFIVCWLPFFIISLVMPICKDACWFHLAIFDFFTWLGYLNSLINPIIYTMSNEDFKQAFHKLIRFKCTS
Chain of 5-hydroxytryptamine receptor 1D (P28221 whole entry): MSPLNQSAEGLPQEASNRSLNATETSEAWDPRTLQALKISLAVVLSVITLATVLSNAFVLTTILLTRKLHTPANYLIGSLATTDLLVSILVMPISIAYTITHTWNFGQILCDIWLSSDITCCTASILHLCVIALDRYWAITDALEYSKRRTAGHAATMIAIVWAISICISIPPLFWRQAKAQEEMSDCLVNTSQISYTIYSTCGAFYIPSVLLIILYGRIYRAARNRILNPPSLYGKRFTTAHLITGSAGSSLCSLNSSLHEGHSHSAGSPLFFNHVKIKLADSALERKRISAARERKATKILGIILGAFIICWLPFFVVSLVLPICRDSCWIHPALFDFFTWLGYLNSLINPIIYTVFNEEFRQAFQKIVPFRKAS

Turning to `O=S(=O)(c1ccc(Cl)cc1)N1CC=C(c2ccc3[nH]cc(CCN4CCCC4)c3c2)CC1`, the Ki in assay [1] was 9.3 nM; in assay [3], 110 nM. Moreover, the Ratio in assay [2] worked out at 12.

As to `CN(C)CCc1c[nH]c2ccc(C3=CCN(C)CC3)cc12`, the Ratio in assay [2] came out at 76.

For `COc1ccc(NC(=O)N2CC=C(c3ccc4[nH]cc(CCN5CCCC5)c4c3)CC2)cc1`, the Ki is 7.8 nM in assay [1] and 44 nM in assay [3]. Besides, in assay [2], the Ratio turned out to be 5.6.

For the molecule `O=S(=O)(c1cccc2ccccc12)N1CC=C(c2ccc3[nH]cc(CCN4CCCC4)c3c2)CC1`, the results for the Ki in assay [1] and in assay [3] were 27 nM and 410 nM, respectively. Further, the Ratio in assay [2] stood at 15.

Turning to `Cc1ccc(S(=O)(=O)N2CC=C(c3ccc4[nH]cc(CCN5CCCC5)c4c3)CC2)cc1`, the Ki in assay [1] is 12 nM; in assay [3] it was 140 nM. Moreover, in assay [2], the Ratio was 12.

In the case of `C1=C(c2ccc3[nH]cc(CCN4CCCC4)c3c2)CCNC1`, the values for the Ki in assay [1] and in assay [3] were 74 nM and 760 nM, respectively. Further, the Ratio in assay [2] stood at 10.

As for `COc1ccc(NC(=S)N2CC=C(c3ccc4[nH]cc(CCN5CCCC5)c4c3)CC2)cc1`, the Ki in assay [1] worked out at 6.2 nM; in assay [3], 58 nM. Besides, the Ratio in assay [2] was found to be 9.3.

On to `O=C(Nc1cccc2ccccc12)N1CC=C(c2ccc3[nH]cc(CCN4CCCC4)c3c2)CC1`, for which the Ki came to 8.8 nM in assay [1] and 65 nM in assay [3]. The Ratio in assay [2] stood at 7.6.

With `COc1ccc(S(=O)(=O)N2CC=C(c3ccc4[nH]cc(CCN5CCCC5)c4c3)CC2)cc1`, the Ki in assay [1] came out at 11 nM; in assay [3] it was 140 nM. Moreover, the Ratio in assay [2] worked out at 13.

For `O=S(=O)(c1ccccc1)N1CC=C(c2ccc3[nH]cc(CCN4CCCC4)c3c2)CC1`, the Ki was 21 nM in assay [1] and 440 nM in assay [3]. The Ratio in assay [2] was determined as 21.

Take `S=C(NC12CC3CC(CC(C3)C1)C2)N1CC=C(c2ccc3[nH]cc(CCN4CCCC4)c3c2)CC1`: the Ki in assay [1] turned out to be 29 nM; in assay [3], 170 nM. Further, the Ratio in assay [2] is 5.9.

Regarding `O=C(NC12CC3CC(CC(C3)C1)C2)N1CC=C(c2ccc3[nH]cc(CCN4CCCC4)c3c2)CC1`, the Ki worked out at 29 nM in assay [1] and 64 nM in assay [3]. Also, in assay [2], the Ratio turned out to be 2.2.

By Ki is commonly meant the dissociation constant of the complex between target and ligand, obtained from inhibition or displacement. A high value points to a looser hold on the target.
